From patent US20240009151A1, “FORMULATIONS OF AZOBENZENE PHOTOREACTIVE COMPOUNDS” (BAYON THERAPEUTICS, INC., priority 2020, published 2024)

Experiments:
[1] = tested on: retinal ganglion cells (RGCs) from rd1 retina; assay: multielectrode array (MEA) electrophysiology of isolated rd1 retinas, light response index (LRI); format: cell-based, mouse
Procedure: Isolated rd1 retinas were treated with formulations of 100 μM Compound 1 and increasing concentrations of SBE-CD, from 300 μM to 34000 μM. Light responsivity was measured using multielectrode array (MEA) electrophysiology. […] To quantify the degree of light-responsivity for each recorded cell, the normalized relative difference in observed spike frequencies with and without light stimulus was defined as the light response index (LRI): […]

[2] = tested on: RGCs of rd1-GCaMP6f retina; assay: 2-photon live calcium imaging of isolated rd1-GCaMP6f retina, fraction of light-responsive cells; format: cell-based, mouse; conditions: 100 μM Compound 1; lower stoichiometry of SBE-CD (300 μM vs 1200 μM), synaptic blockers
Procedure: To better understand how Compound 1 was photosensitizing RGCs, an rd1 mouse line was generated expressing the genetically encoded calcium indicator GCalVIP6f under control of Synapsin-1 to label all neurons for 2-photon live imaging. Isolated retina from these mice were then treated with 100 uM Compound 1 and either 300 uM or 1200 uM SBE-CD and imaged in the presence of synaptic blockers. The latter concentration was chosen to increase the amount of available cyclodextrin around to potentiate the photosensitization while not completely quenching it. Due to the spectral overlap of Compound 1 absorbance with GCaMP6fref, an interline stimulus module was developed for the 2-photon microscope. […]
To determine which neurons were responding to light, collected movies were cross correlated to the stimulus periods using an autocorrelation estimation. […] These resulting correlated micrographs were then used to quantify the number of light-responsive cells. […]
The total number of cells were counted from a max Z-projection the same movies and used to determine the relative fraction of light-responsive cells per Compound 1 formulation. […] The activity was also rastered using the recorded ΔF/F of all neurons (FIG. 2e).

[3] = tested on: RGCs of rd1 retina; assay: single in vivo injection, time course of photosensitization of RGCs (spike rasters, LRI); parameters: species or system mouse; conditions: 100 μM Compound 1 and 1200 μM SBE-CD, observed up to 28 days post-injection
From the text: FIG. 3e is a scatter plot correlating the strength of light responses in RGCs and the abundance of Compound 1 in retinal tissue.

Structure (SMILES): CCN(Cc1ccccc1)c1ccc(/N=N/c2ccc(NC(=O)C[N+](CC)(CC)CC)cc2)cc1 [Compound 1]
- dependence of LRI on the amount of SBE-CD used ([1]; 100 μM Compound 1, SBE-CD from 300 μM to 34000 μM): dose-response
- light response of RGCs (MEA) ([1]; 100 μM Compound 1 with 300 μM SBE-CD (minimal amount)): strongest light-responses
- light response of RGCs (MEA) ([1]; 100 μM Compound 1 with 34000 μM SBE-CD (excess)): nearly eliminated any light response
- photosensitization of the cells (LRI histograms) ([1]; excess of SBE-CD, compared to untreated rd1 tissue): very weakly
- number of light-responding RGCs (LRI histograms) ([1]; minimal amount of SBE-CD): greatly increased
- number of RGCs that were light responsive (fraction of light-responding cells) [2]: greater number of RGCs that were light responsive
- duration of photosensitization of RGCs [3]: prolongs photosensitization
